Assay results reported in patent US20150148235A1, “HERBICIDE-RESISTANT SUNFLOWER PLANTS WITH MULTIPLE HERBICIDE RESISTANT ALLELES OF AHASL1 AND METHODS OF USE” (NIDERA S.A., priority 2013, published 2015).
Marks after values point to notes of the source that are not given here.

Test system: sunflower lines and hybrids carrying A122T and/or A205V AHASL1 alleles
Test: Greenhouse whole-plant response to imazapyr doses (height, Phytotoxicity Index, dry biomass), Example 2
Assay type: in vivo, Helianthus annuus
Conditions: 14 DAT; for Biomass weight reduction: heterozygous A122T/A205V
Description: Seeds were sown in Petri dishes and, after germination, plantlets were transplanted to pots of 10 cm of diameter in a potting media consisting of equal parts of vermiculite, soil and sand. Plants were grown in a greenhouse under natural light conditions supplemented with 400 W sodium halide lamps to provide a 16 hr daylength. Day/night temperatures were 25 and 20° C., respectively. At the V2-V4 stage (Schneiter & Miller (1981) Crop Sci. 21:901-903) 10 plants of each genotype were randomly assigned to each treatment consisting of eight imazapyr doses (0, 40, 80, 160, 240, 320, 400 and 480 g ai/ha, corresponding to untreated, 0.5×, 1×, 2×, 3×, 4×, 5× and 6×, respectively), and a zero-time biomass determination. Experiment was arranged as a randomized block design with a full factorial (sunflower line×treatment) arrangement of treatments and 10 replications.
On the day of herbicide application ten plants of each genotype were cut at the cotyledonal node and dried at 60° C. for 48 hrs for zero-time dried weight determination.
The remaining plants were maintained for 14 days after imazapyr treatment (DAT) and their height, Phytotoxicity Index (PI) and above ground dry biomass were determined Height was determined as the distance between the cotyledonal node and the apex of each plant. Above ground biomass data from each line were converted to biomass accumulation after application by subtracting the appropriate average zero-time biomass from each sample. Dry biomass data were converted to percentages of the untreated control plants within each line to allow direct comparisons between groups.

[1] = H4 (A122T/A205V hybrid), 4x=320 g ai/ha
[2] = L1 (A205V line), 0.5x=40 g ai/ha
[3] = L1 (A205V line), 3x=240 g ai/ha
[4] = L2 (A205V line), 5x=400 g ai/ha
[5] = L3 (cmsGM40, A122T line), 2x=160 g ai/ha
[6] = L3 (cmsGM40, A122T line), 4x=320 g ai/ha
[7] = L4 (A122T line), 0.5x=40 g ai/ha
[8] = L4 (A122T line), 2x=160 g ai/ha
[9] = L4 (A122T line), 3x=240 g ai/ha
[10] = L5 (WT susceptible), 1x=80 g ai/ha
[11] = L5 (WT susceptible), 2x=160 g ai/ha
[12] = L5 (WT susceptible), 3x=240 g ai/ha
[13] = L5 (WT susceptible), 4x=320 g ai/ha
[14] = L5 (WT susceptible), 5x=400 g ai/ha
[15] = L5 (WT susceptible), 6x=480 g ai/ha
[16] = mean of A122T genotypes (H2,L3,L4), 2x=160 g ai/ha
[17] = mean of A122T genotypes (H2,L3,L4), 3x=240 g ai/ha

CC(C)C1(C)N=C(c2ncccc2C(=O)O)NC1=O (stereo not drawn) [imazapyr]
biomass accumulation (dry) [1]: 85.0 % of untreated | plant height [1]: 95.0 % of untreated | Phytotoxicity Index (scale 0-9) (H4 (A122T/A205V hybrid), 5x=400 g ai/ha): 0.2 | Phytotoxicity Index (scale 0-9) (H4 (A122T/A205V hybrid), 6x=480 g ai/ha): 0.0 | Phytotoxicity Index (scale 0-9) [2]: 0 | plant height [2]: 100.0 % of untreated | Phytotoxicity Index (scale 0-9) (L1 (A205V line), 1x=80 g ai/ha): 0 | plant height (L1 (A205V line), 1x=80 g ai/ha): 100.0 % of untreated | Phytotoxicity Index (scale 0-9) (L1 (A205V line), 2x=160 g ai/ha): 1.6 | Phytotoxicity Index (scale 0-9) [3]: 5.1 | plant height [3]: 50.0 % of untreated | Phytotoxicity Index (scale 0-9) (L1 (A205V line), 4x=320 g ai/ha): 8.4 | Phytotoxicity Index (scale 0-9) (L1 (A205V line), 5x=400 g ai/ha): 8.9 | Phytotoxicity Index (scale 0-9) (L1 (A205V line), 6x=480 g ai/ha): 8.9 | Phytotoxicity Index (scale 0-9) (L2 (A205V line), 0.5x=40 g ai/ha): 0 | Phytotoxicity Index (scale 0-9) (L2 (A205V line), 1x=80 g ai/ha): 0 | biomass accumulation (dry) (L2 (A205V line), 1x=80 g ai/ha): 85.0 % of untreated | Phytotoxicity Index (scale 0-9) (L2 (A205V line), 2x=160 g ai/ha): 3.1 | Phytotoxicity Index (scale 0-9) (L2 (A205V line), 3x=240 g ai/ha): 3.9 | Phytotoxicity Index (scale 0-9) (L2 (A205V line), 4x=320 g ai/ha): 5.9 | Phytotoxicity Index (scale 0-9) [4]: 6.9 | plant height [4]: 26.0 % of untreated | Phytotoxicity Index (scale 0-9) (L2 (A205V line), 6x=480 g ai/ha): 6.7 | Phytotoxicity Index (scale 0-9) (L3 (cmsGM40, A122T line), 0.5x=40 g ai/ha): 0.4 | Phytotoxicity Index (scale 0-9) (L3 (cmsGM40, A122T line), 1x=80 g ai/ha): 0.4 | Phytotoxicity Index (scale 0-9) [5]: 0.4 | plant height [5]: 92.0 % of untreated | Phytotoxicity Index (scale 0-9) (L3 (cmsGM40, A122T line), 3x=240 g ai/ha): 0.5 | Phytotoxicity Index (scale 0-9) [6]: 1.0 | biomass accumulation (dry) [6]: 75.0 % of untreated | Phytotoxicity Index (scale 0-9) (L3 (cmsGM40, A122T line), 5x=400 g ai/ha): 2.0 | Phytotoxicity Index (scale 0-9) (L3 (cmsGM40, A122T line), 6x=480 g ai/ha): 2.5 | Phytotoxicity Index (scale 0-9) [7]: 0.0 | biomass accumulation (dry) [7]: 100.0 % of untreated | plant height [7]: 100.0 % of untreated | Phytotoxicity Index (scale 0-9) (L4 (A122T line), 1x=80 g ai/ha): 0.0 | plant height (L4 (A122T line), 1x=80 g ai/ha): 100.0 % of untreated | Phytotoxicity Index (scale 0-9) [8]: 0.0 | biomass accumulation (dry) [8]: 97.0 % of untreated | Phytotoxicity Index (scale 0-9) [9]: 0.0 | plant height [9]: 97.0 % of untreated | Phytotoxicity Index (scale 0-9) (L4 (A122T line), 4x=320 g ai/ha): 0.0 | Phytotoxicity Index (scale 0-9) (L4 (A122T line), 5x=400 g ai/ha): 0.0 | Phytotoxicity Index (scale 0-9) (L4 (A122T line), 6x=480 g ai/ha): 0.5 | Phytotoxicity Index (scale 0-9) (L5 (WT susceptible), 0.5x=40 g ai/ha): 9 | Phytotoxicity Index (scale 0-9) [10]: 9 | biomass accumulation (dry) [10]: 15.0 % of untreated | Phytotoxicity Index (scale 0-9) [11]: 9 | biomass accumulation (dry) [11]: 15.0 % of untreated | Phytotoxicity Index (scale 0-9) [12]: 9 | biomass accumulation (dry) [12]: 15.0 % of untreated | Phytotoxicity Index (scale 0-9) [13]: 9 | biomass accumulation (dry) [13]: 15.0 % of untreated | Phytotoxicity Index (scale 0-9) [14]: 9 | biomass accumulation (dry) [14]: 15.0 % of untreated | Phytotoxicity Index (scale 0-9) [15]: 9 | biomass accumulation (dry) [15]: 15.0 % of untreated | Height reduction (heterozygotes A122T/A205V, 0.5x): 0.6% | Biomass weight reduction (0.5x): 0.3% | Biomass weight reduction (6x): 33% | Phytotoxicity Index (scale 0-9) (mean of A122T genotypes (H2,L3,L4), 0.5x=40 g ai/ha): 0.3 | Phytotoxicity Index (scale 0-9) (mean of A122T genotypes (H2,L3,L4), 1x=80 g ai/ha): 0.3 | Phytotoxicity Index (scale 0-9) [16]: 0.3 | plant height [16]: 98.0 % of untreated | Phytotoxicity Index (scale 0-9) [17]: 0.3 | biomass accumulation (dry) [17]: 90.0** % of untreated | Phytotoxicity Index (scale 0-9) (mean of A122T genotypes (H2,L3,L4), 4x=320 g ai/ha): 0.5 | Phytotoxicity Index (scale 0-9) (mean of A122T genotypes (H2,L3,L4), 5x=400 g ai/ha): 0.8 | Phytotoxicity Index (scale 0-9) (mean of A122T genotypes (H2,L3,L4), 6x=480 g ai/ha): 1.2 | Phytotoxicity Index (scale 0-9) (mean of A122T/A205V genotypes (H3,H4), 0.5x=40 g ai/ha): 0.5 | Phytotoxicity Index (scale 0-9) (mean of A122T/A205V genotypes (H3,H4), 1x=80 g ai/ha): 0.5 | Phytotoxicity Index (scale 0-9) (mean of A122T/A205V genotypes (H3,H4), 2x=160 g ai/ha): 0.5 | Phytotoxicity Index (scale 0-9) (mean of A122T/A205V genotypes (H3,H4), 3x=240 g ai/ha): 0.5 | Phytotoxicity Index (scale 0-9) (mean of A122T/A205V genotypes (H3,H4), 4x=320 g ai/ha): 0.5 | Phytotoxicity Index (scale 0-9) (mean of A122T/A205V genotypes (H3,H4), 5x=400 g ai/ha): 0.6 | Phytotoxicity Index (scale 0-9) (mean of A122T/A205V genotypes (H3,H4), 6x=480 g ai/ha): 1 | Phytotoxicity Index (scale 0-9) (mean of A205V genotypes (H1,L1,L2), 2x=160 g ai/ha): 2.2* | Phytotoxicity Index (scale 0-9) (mean of A205V genotypes (H1,L1,L2), 3x=240 g ai/ha): 5.1** | Phytotoxicity Index (scale 0-9) (mean of A205V genotypes (H1,L1,L2), 4x=320 g ai/ha): 7.4** | Phytotoxicity Index (scale 0-9) (mean of A205V genotypes (H1,L1,L2), 5x=400 g ai/ha): 8.2** | Phytotoxicity Index (scale 0-9) (mean of A205V genotypes (H1,L1,L2), 6x=480 g ai/ha): 8.2**
